{"source": "paper PMC7363588", "about": "“Mapping of the FGF14:Nav1.6 complex interface reveals FLPK as a functionally active peptide modulating excitability” (Physiological Reports, 2020)", "assay_type_in_all_cases": "cell-based, human", "conditions_in_all_cases": "50 µM peptide, 12 hr, HEK293, vs DMSO", "key": {"[1]": {"test_system": "FGF14^Y158N/V160N:Nav1.6 complex", "test": "LCA, CLuc-FGF14^Y158N/V160N"}, "[2]": {"test_system": "FGF14^Y158A/V160A:Nav1.6 complex", "test": "LCA, CLuc-FGF14^Y158A/V160A"}, "[3]": {"test_system": "FGF14^V160A:Nav1.6 complex", "test": "LCA, CLuc-FGF14^V160A", "description": "Plasmids used in this study derived from the following clones: human FGF14‐1b isoform (accession number: NM_175929.2) and human Nav1.6 (accession number: NM_014191.3). The CLuc‐FGF14, CD4‐Nav1.6‐NLuc, constructs and the pcDNA3.1 vector (Invitrogen, Carlsbad, CA) were engineered and characterized as previously described (Goetz et al., 2009; Shavkunov et al., 2012,2013,2015; Ali et al., 2016, 2018; Wadsworth et al., 2019). The plasmid pGL3 expressing full length Firefly (Photinus pyralis) luciferase was a gift from Dr. P. Sarkar (Department of Neurology, UTMB). For protein purification studies, cDNAs encoding FGF14‐1b (accession number NP_787125; aa 64–252) or the C‐terminal tail of Nav1.6 (accession number #NP_001171455; aa 1756–1939) were subcloned into suitable pET bacterial expression vectors (pET28a‐FGF14; pET30a‐Nav1.6) with a 6X His‐tag at the N‐terminal site; these plasmids were a gift of Dr. Moosa Mohammadi (NYU, Langone Medical Center). The mutation coding for FGF14^V160A was generated by site‐directed mutagenesis and PCR using FGF14‐1b as a template described previously (Ali et al., 2016). […]\nTwenty‐four hours after transfection, HEK293 cells were replated from the 24‐well plate using a 0.04% Trypsin:EDTA mixture dissolved in PBS. […] The bioluminescence reaction was initiated by dispensing 100 µl of D‐luciferin substrate (1.5 mg/ml dissolved in PBS) using a Synergy^TM H4 Multi‐Mode Micro plate Reader (Biotech, Winooski, VT). Luminescence readings were initiated after 3 s of mild plate shaking and performed at 2 min intervals for 20 min with integration times of 0.5 s. […]\nTo test the hypothesis that FLPK, PLEV and/or EYYV in cells could act as FGF14 inhibitors of the FGF14:Nav1.6 complex assembly, the complex was reconstituted using LCA (Ali et al., 2014, 2016; Hsu et al., 2015, 2017; Shavkunov et al., 2012,2013,2015; Wadsworth et al., 2019). HEK293 cells transfected with constructs expressing CLuc‐FGF14 and CD4‐Nav1.6 C‐tail‐NLuc in which luminescence is detected upon addition of the D‐luciferin substrate as a read‐out of protein binding (Figure 3). […]"}}, "note": "Entries after “also recorded” stand apart in the source; their conditions may differ. Peptide text beside a SMILES is read from it."}
{"molecule": "CC(=O)N[C@@H](Cc1ccccc1)C(=O)N[C@@H](CC(C)C)C(=O)N1CCC[C@H]1C(=O)N[C@@H](CCCCN)C(N)=O", "note": "[FLPK] (Ac-FLPK-NH2)", "values": [{"measurement": "effect on FGF14^Y158N/V160N:Nav1.6 complex formation", "setting": "[1]", "result": "abolished the effect of FLPK; also recorded: similarly abolished"}, {"measurement": "effect on FGF14^Y158A/V160A:Nav1.6 complex formation", "setting": "[2]", "result": "prevented the effect of FLPK and EYYV; also recorded: abolished"}, {"measurement": "effect on FGF14^V160A:Nav1.6 complex formation", "setting": "[3]", "result": "prevented the effect of FLPK and EYYV; also recorded: abolished"}]}
{"molecule": "EYYV [tetrapeptide previously designed from FGF14:FGF14 dimer interface; docked with N-terminal acetylation and C-terminal amidation]", "values": [{"measurement": "effect on FGF14^Y158A/V160A:Nav1.6 complex formation", "setting": "[2]", "result": "prevented the effect of FLPK and EYYV; also recorded: abolished"}, {"measurement": "effect on FGF14^V160A:Nav1.6 complex formation", "setting": "[3]", "result": "prevented the effect of FLPK and EYYV; also recorded: abolished"}]}
{"molecule": "PLEV [tetrapeptide previously designed from FGF14:FGF14 dimer interface; docked with N-terminal acetylation and C-terminal amidation]", "values": [{"measurement": "effect on FGF14^Y158N/V160N:Nav1.6 complex formation", "setting": "[1]", "result": "increased the inhibition"}, {"measurement": "effect on FGF14^Y158A/V160A:Nav1.6 complex formation", "setting": "[2]", "result": "slight, but statistically significant increase; also recorded: not PLEV"}, {"measurement": "effect on FGF14^V160A:Nav1.6 complex formation", "setting": "[3]", "result": "not PLEV"}]}
